Source: patent US20240350443A1, “COMPOSITION, FORMULATION, PREPARATION METHOD AND USE FOR GLUTATHIONE PRECURSOR” (priority 2021, published 2024)
Marks after values point to notes of the source that are not given here.

Key:
Format in all cases: in vivo, Kunming mice
humoral immune function = test: Humoral immune function: antibody-producing cells and serum hemolysin level; details: mice; 500 mg/kg BW intragastric; x ± s, n = 10
From the text: (§1) In the experiment, the effect of the composition on the immune system of mice was researched from four aspects of cellular immune function, humoral immune function, monocyte-macrophage function and NK cell activity.
(§2) Test animals were as follows: male SPF-grade Kunming mice aged 4 weeks, with body weights of 18-22 g, available from Hubei Provincial Laboratory Animal Public Service Center, Hubei, China [certification No.: SCXK (E) 2020-0018].
(§3) The experimental method was as follows: 400 mice were randomly divided into 5 groups, with 80 mice in each group, and each group was subjected to 5 kinds of immunoassays including body weight and organ/body ratio measurement, cellular immune function measurement, humoral immune function measurement, monocyte-macrophage function measurement, and NK cell activity measurement. For each immunoassay, 80 mice were tested and divided into 8 groups, namely a negative control group and experimental groups 1-7, with 10 mice in each group; distilled water was given to the negative control group, corresponding test substances (the dose of acetylcysteine or cysteine agent in each test substance was 500 mg/kg BW) were given to each experimental group, and the intragastric capacity was 20 mL/kg BW.

aged mice = test: Oxidation resistance function experiment in aged mice; details: x ± s, n = 13
From the text: In the experiment, the oxidation resistance effect of the composition was researched by detecting four indicators of MDA, protein carbonyl, antioxidant enzyme activity (GSH-PX or SOD) and reduced GSH content. If three of the four indicators were positive, the composition could be determined to have the oxidation resistance effect.
Test animals were as follows: male SPF-grade Kunming mice aged over 10 months, with body weights of 40-60 g, available from Hubei Provincial Laboratory Animal Public Service Center, Hubei, China [certification No.: SCXK (E) 2020-0018].
The experimental method was as follows: 104 mice were randomly divided into 8 groups, namely, a negative control group and experimental groups 1-7 (i.e., the formula of the test samples adopted the formula of the above experimental groups 1-7), with 13 mice in each group.
Distilled water was given to the blank control group, corresponding test substances (the dose of acetylcysteine or cysteine agent in each test substance was 500 mg/kg BW) were given to each experimental group, and the intragastric capacity was 20 mL/kg BW. After 30 days of continuous intragastric administration, blood was sampled from the inner canthus of each group of animals, a hemolysate was prepared, and the MDA content and the glutathione peroxidase (GSH-PX) activity were detected; the animals were sacrificed and the livers were taken as homogenates, 10% liver homogenates were prepared for reduced GSH and protein carbonyl determination, and 1% liver homogenates were prepared for superoxide dismutase (SOD) activity determination. Each detection kit was available from NanJing JianCheng Bioengineering Institute.

[1] = tested on: mouse peritoneal macrophages; test: Phagocytosis of chicken erythrocytes by mouse peritoneal macrophages; details: x ± s, n = 10
From the text: as §1, §2, §3

alcoholic liver damage [2] = test: Liver protection function experiment: liver histopathology score (lipid droplets); details: alcoholic liver damage mice; score 0-4 points per field; x ± s, 13 mice
Protocol: Distilled water was given to the blank control group and the model control group, corresponding test substances (the dose of acetylcysteine or cysteine agent in each test substance was 500 mg/kg BW) were given to each experimental group according to the formula, and the intragastric capacity was 20 mL/kg BW. On day 30 of the experiment, the mice of the model control group and each experimental group were intragastrically administered with 14 mL/kg BW of 50% ethanol once, and distilled water with equal volume was given to the blank control group, and then the mice were fasted for 16 hours. The mice were sacrificed by cervical dislocation after weighing. […]
The areas of the fields of view occupied by various lesions in each field of view were respectively recorded, and the total lesion scores of the observed fields of view were accumulated. […]

immune system of mice = test: Immunity enhancement function, overall determination; details: any two of four aspects positive
alcoholic liver damage [3] = test: Liver protection function experiment: MDA, reduced GSH and TG in liver homogenates
From the text: In the experiment, the auxiliary protection effect of the composition of the present disclosure on alcoholic liver damage was researched by detecting three indicators of liver malondialdehyde (MDA) content, reduced glutathione (GSH) and triglyceride (TG) and histopathologic examination (wherein the lower the MDA and TG contents were, the higher the GSH content was, the better the liver protection effect was). If the three indicators of the liver MDA, the reduced GSH and the TG were positive, or any two of the three indicators of the liver MDA, the reduced GSH and the TG were positive and the histopathological examination result was positive, the composition could be determined to have the auxiliary protection effect on alcoholic liver damage.
Test animals were as follows: male SPF-grade Kunming mice aged 5 to 6 weeks, with body weights of 18-22 g, available from Hubei Provincial Laboratory Animal Public Service Center, Hubei, China [certification No.: SCXK (E) 2020-0018].
The experimental method was as follows: 117 mice were randomly divided into 9 groups, namely a blank control group, a model control group and experimental groups 1-7 (the formula of the test samples was referred to the formula of the experimental groups 1-7), with 13 mice in each group.
Distilled water was given to the blank control group and the model control group, corresponding test substances (the dose of acetylcysteine or cysteine agent in each test substance was 500 mg/kg BW) were given to each experimental group according to the formula, and the intragastric capacity was 20 mL/kg BW. On day 30 of the experiment, the mice of the model control group and each experimental group were intragastrically administered with 14 mL/kg BW of 50% ethanol once, and distilled water with equal volume was given to the blank control group, and then the mice were fasted for 16 hours. The mice were sacrificed by cervical dislocation after weighing.
0.5 g of liver was taken and added with normal saline to prepare a liver homogenate, and then the MDA, reduced GSH and TG were detected. The detection method and the calculation method for the MDA and reduced GSH were described according to the instruction of a kit from NanJing JianCheng Bioengineering Institute, and the TG was detected by using the Beckman Coulter AU680 Chemistry Analyzer.

[4] = 10% liver homogenates of aged mice, 30 days
[5] = alcoholic liver damage mice, 500 mg/kg BW acetylcysteine or cysteine intragastric, 30 days, x ± s, 13 mice

In the case of `CC(=O)N[C@@H](CS)C(=O)O` [Experimental group 1, N-acetylcysteine], the “Number of hemolytic plaques (N)/number of whole splenocytes” value (humoral immune function) is reported as 161.71 ± 11.52^c, the SOD (aged mice; 1% liver homogenates of aged mice, 30 days) is reported as 338.4 ± 44.9^bc U/mgprot and the MDA (aged mice; 2% hemolysates of aged mice, 500 mg/kg BW intragastric 30 days) is reported as 17.88 ± 2.55^bc nmol/ml. The GSH (aged mice; [4]) was 30.05 ± 6.08^a mg/gprot, the Protein carbonyl (aged mice; [4]) was 1.33 ± 0.35^ab nmol/mgprot and the GSH-PX (aged mice; hemolysate of aged mice, 30 days) was 585.2 ± 24.2^a U/ml. For the same compound, the “Phagocytic rate, phagocytosis of chicken erythrocytes” value [1] was 33.88 ± 2.48^b %, the “Liver histopathology score (fatty degeneration of hepatocytes)” value (alcoholic liver damage [2]) was 1.46 ± 1.05^bc and the “Immunity enhancement effect (determination)” value (immune system of mice) was “had the immunity enhancement effect”. The “Auxiliary protection effect on alcoholic liver damage (determination)” value (alcoholic liver damage [3]; Technical Specification for Inspection and Evaluation of Health Food (2003 edition)) was “had an auxiliary protection effect on alcoholic liver damage”, the “MDA in liver homogenates” value (alcoholic liver damage [3]; [5]) was 0.98 ± 0.28^bc nmol/mgprot and the “Reduced GSH in liver homogenates” value (alcoholic liver damage [3]; [5]) was 34.55 ± 9.48^bc mg/gprot. The “TG in liver homogenates” value (alcoholic liver damage [3]; [5]) was 1.52 ± 0.64^bc mmol/L.
